Literature values as cited in patent US20100256576A1, “Disinfectant Compositions, Methods and Systems” (TYCO HEALTHCARE GROUP LP, priority 2009, published 2010).

Details: up to 3000 mg infused over 3 hours, daily, humans with hypercalcemia

In the case of `O=C([O-])CN(CCN(CC(=O)[O-])CC(=O)O)CC(=O)O.[Na+].[Na+]` [EDTA, Disodium EDTA], the “tolerability of infused dose” value is given as “well tolerated”.
